According to patent publication US9738655B2, “Tetrahydroisoquinolines containing substituted azoles as factor XIa inhibitors” (BRISTOL-MYERS SQUIBB COMPANY, priority 2013, dated 2017):
Where a name gives a salt, the structure may show the parent alone. Read-outs that look alike come from different tables or passages of the source.

Key:
[1] = molecular target: purified human plasma kallikrein (Homo sapiens (Human), UniProt P03952); test: Plasma kallikrein enzyme inhibition assay (chromogenic substrate S-2302); format: biochemical
Sequence of purified human plasma kallikrein (P03952 391-638): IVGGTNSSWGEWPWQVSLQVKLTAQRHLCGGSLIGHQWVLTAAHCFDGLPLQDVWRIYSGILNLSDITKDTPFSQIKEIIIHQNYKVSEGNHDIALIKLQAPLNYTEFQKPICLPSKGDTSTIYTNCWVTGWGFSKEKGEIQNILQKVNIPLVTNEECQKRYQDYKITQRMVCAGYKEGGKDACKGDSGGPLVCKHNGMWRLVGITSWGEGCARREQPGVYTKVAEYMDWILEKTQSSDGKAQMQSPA
Sequence of purified human plasma kallikrein (P03952 20-390 partner): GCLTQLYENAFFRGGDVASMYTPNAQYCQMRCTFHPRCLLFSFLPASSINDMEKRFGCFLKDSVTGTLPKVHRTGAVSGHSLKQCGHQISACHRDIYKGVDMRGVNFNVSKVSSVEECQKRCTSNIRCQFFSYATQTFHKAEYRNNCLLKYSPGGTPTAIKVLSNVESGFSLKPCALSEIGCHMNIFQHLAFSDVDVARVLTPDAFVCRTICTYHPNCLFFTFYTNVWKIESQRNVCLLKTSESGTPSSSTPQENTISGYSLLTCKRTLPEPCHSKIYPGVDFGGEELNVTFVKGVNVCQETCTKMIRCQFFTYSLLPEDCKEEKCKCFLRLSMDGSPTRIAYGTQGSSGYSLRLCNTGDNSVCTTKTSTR

[2] = molecular target: purified human Factor XIa (Homo sapiens (Human), UniProt P03951); test: Factor XIa enzyme inhibition assay (chromogenic substrate S-2366); settings: read-out: Factor XIa Ki, measured at 25° C.
Sequence of purified human Factor XIa (P03951 388-625): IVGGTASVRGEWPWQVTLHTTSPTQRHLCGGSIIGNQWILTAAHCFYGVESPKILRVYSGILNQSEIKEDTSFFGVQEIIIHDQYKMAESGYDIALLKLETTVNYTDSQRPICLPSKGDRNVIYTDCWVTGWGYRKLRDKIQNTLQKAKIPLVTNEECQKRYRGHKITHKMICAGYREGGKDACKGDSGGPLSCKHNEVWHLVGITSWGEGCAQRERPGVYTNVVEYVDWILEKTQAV
Sequence of purified human Factor XIa (P03951 19-387 partner): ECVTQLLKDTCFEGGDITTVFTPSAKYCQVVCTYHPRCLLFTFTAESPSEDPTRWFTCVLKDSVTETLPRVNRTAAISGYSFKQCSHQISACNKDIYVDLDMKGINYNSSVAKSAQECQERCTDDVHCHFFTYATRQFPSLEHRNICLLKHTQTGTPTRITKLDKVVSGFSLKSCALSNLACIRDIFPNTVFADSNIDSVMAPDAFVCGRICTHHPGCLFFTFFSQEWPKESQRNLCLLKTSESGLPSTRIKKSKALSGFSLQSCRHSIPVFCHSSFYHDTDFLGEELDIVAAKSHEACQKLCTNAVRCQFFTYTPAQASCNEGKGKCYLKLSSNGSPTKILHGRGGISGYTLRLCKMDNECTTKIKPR

[3] = measured at 25° C. (no asterisk), TFA salt
[4] = measured at 25° C. (no asterisk)

## COC1CCN(c2cccc3c2CCN(C(=O)C2CC(c4cccc(Cl)c4F)=NO2)C3C(=O)Nc2ccc(C(=O)O)cc2)CC1 (single isomer, unassigned) [Example 303, 4-(2-(3-(3-chloro-2-fluorophenyl)-4,5-dihydroisoxazole-5-carbonyl)-5-(4-methoxypiperidin-1-yl)-1,2,3,4-tetrahydroisoquinoline-1-carboxamido)benzoic acid, TFA salt]
[1]; [3]
  Ki: 1960 nM

## COC1CCN(c2cccc3c2CCN(C(=O)C2CC(c4cccc(Cl)c4F)=NO2)C3C(=O)Nc2ccc(C(=O)O)cc2)CC1 (single isomer, unassigned) [Example 304, 4-(2-(3-(3-chloro-2-fluorophenyl)-4,5-dihydroisoxazole-5-carbonyl)-5-(4-methoxypiperidin-1-yl)-1,2,3,4-tetrahydroisoquinoline-1-carboxamido)benzoic acid, TFA salt]
[1]; [3]
  Ki: 232 nM

## COC1CCN(c2cccc3c2CCN(C(=O)C2CC(c4cccc(Cl)c4F)=NO2)C3C(=O)Nc2ccc(C(=O)O)cc2)CC1 (single isomer, unassigned) [Example 305, 4-(2-(3-(3-chloro-2-fluorophenyl)-4,5-dihydroisoxazole-5-carbonyl)-5-(4-methoxypiperidin-1-yl)-1,2,3,4-tetrahydroisoquinoline-1-carboxamido)benzoic acid, TFA]
[1]; measured at 25° C. (no asterisk), TFA
  Ki: 31.7 nM

## O=C(O)c1ccc(NC(=O)C2c3cccc(N4CCOCC4)c3CCN2C(=O)[C@H]2CC(c3cccc(Cl)c3F)=NO2)cc1 (stereo in doubt) [Example 296, 4-((S)-2-((R)-3-(3-chloro-2-fluorophenyl)-4,5-dihydroisoxazole-5-carbonyl)-5-morpholino-1,2,3,4-tetrahydroisoquinoline-1-carboxamido)benzoic acid, TFA salt]
[1]; [4]
  Ki: 186 nM

## O=C(O)c1ccc(NC(=O)[C@@H]2c3ccccc3CCN2C(=O)[C@H]2CC(c3cccc(Cl)c3F)=NO2)cc1 [Example 4, 4-((S)-2-((R)-3-(3-Chloro-2-fluorophenyl)-4,5-dihydroisoxazole-5-carbonyl)-1,2,3,4-tetrahydroisoquinoline-1-carboxamido)benzoic acid]
[1]; [4]
  Ki: 6.38 nM

## O=C(O)c1ccc(NC(=O)[C@H]2c3ccccc3CCN2C(=O)[C@H]2CC(c3cccc(Cl)c3F)=NO2)cc1 [Example 5, 4-((R)-2-((R)-3-(3-Chloro-2-fluorophenyl)-4,5-dihydroisoxazole-5-carbonyl)-1,2,3,4-tetrahydroisoquinoline-1-carboxamido)benzoic acid]
[1]; [4]
  Ki: 1380 nM

## CNC(=O)c1ccc(-c2cccc3c2CCN(C(=O)[C@H]2CC(c4cccc(Cl)c4F)=NO2)[C@@H]3C(=O)Nc2ccc(C(=O)O)cc2)cn1 [Example 19, 4-((S)-2-((R)-3-(3-Chloro-2-fluorophenyl)-4,5-dihydroisoxazole-5-carbonyl)-5-(6-(methylcarbamoyl)pyridin-3-yl)-1,2,3,4-tetrahydroisoquinoline-1-carboxamido)benzoic acid, TFA salt]
[1]; [4]
  Ki: 1.51 nM

## CNC(=O)c1ccc(-c2cccc3c2CCN(C(=O)[C@H]2CC(c4cccc(Cl)c4F)=NO2)[C@H]3C(=O)Nc2ccc(C(=O)O)cc2)cn1 [Example 20, 4-((R)-2-((R)-3-(3-Chloro-2-fluorophenyl)-4,5-dihydroisoxazole-5-carbonyl)-5-(6-(methylcarbamoyl)pyridin-3-yl)-1,2,3,4-tetrahydroisoquinoline-1-carboxamido)benzoic acid, TFA salt]
[1]; [4]
  Ki: 840 nM

## O=C(O)c1ccc(NC(=O)[C@@H]2c3cccc(-c4cncc(F)c4)c3CCN2C(=O)[C@H]2CC(c3cccc(Cl)c3F)=NO2)cc1 [Example 21, 4-((S)-2-((R)-3-(3-Chloro-2-fluorophenyl)-4,5-dihydroisoxazole-5-carbonyl)-5-(5-fluoropyridin-3-yl)-1,2,3,4-tetrahydroisoquinoline-1-carboxamido)benzoic acid, TFA salt]
[1]; measured at 37° C. (*)
  Ki: 9.6 nM

## O=C(O)c1ccc(NC(=O)[C@H]2c3cccc(-c4cncc(F)c4)c3CCN2C(=O)[C@H]2CC(c3cccc(Cl)c3F)=NO2)cc1 [Example 22, 4-((R)-2-((R)-3-(3-Chloro-2-fluorophenyl)-4,5-dihydroisoxazole-5-carbonyl)-5-(5-fluoropyridin-3-yl)-1,2,3,4-tetrahydroisoquinoline-1-carboxamido)benzoic acid, TFA salt]
[1]; measured at 37° C. (*)
  Ki: 869 nM

## O=C(O)c1ccc(NC(=O)C2c3cccc(-c4cnc5[nH]ccc5c4)c3CCN2C(=O)c2cn(-c3cccc(Cl)c3F)nn2)cc1 (centres unmarked) [Example 181, 4-(2-(1-(3-chloro-2-fluorophenyl)-1H-1,2,3-triazole-4-carbonyl)-5-(1H-pyrrolo[2,3-b]pyridin-5-yl)-1,2,3,4-tetrahydroisoquinoline-1-carboxamido)benzoic acid, TFA salt]
[2]
  Ki: < 5 nM

## N#Cc1ccc(-c2cccc3c2CCN(C(=O)c2cn(-c4cccc(Cl)c4F)nn2)C3C(=O)Nc2ccc(C(=O)O)cc2)cn1 (centres unmarked) [Example 182, 4-(2-(1-(3-chloro-2-fluorophenyl)-1H-1,2,3-triazole-4-carbonyl)-5-(6-cyanopyridin-3-yl)-1,2,3,4-tetrahydroisoquinoline-1-carboxamido)benzoic acid, TFA salt]
[2]
  Ki: < 5 nM

## CN(C)c1ncc(-c2cccc3c2CCN(C(=O)c2cn(-c4cccc(Cl)c4F)nn2)C3C(=O)Nc2ccc(C(=O)O)cc2)cn1 (centres unmarked) [Example 183, 4-(2-(1-(3-chloro-2-fluorophenyl)-1H-1,2,3-triazole-4-carbonyl)-5-(2-(dimethylamino)pyrimidin-5-yl)-1,2,3,4-tetrahydroisoquinoline-1-carboxamido)benzoic acid]
[2]
  Ki: < 5 nM

## O=C(O)c1ccc(NC(=O)C2c3cccc(-c4ccc(F)c(C(=O)N5CCCC5)c4)c3CCN2C(=O)c2cn(-c3cccc(Cl)c3F)nn2)cc1 (centres unmarked) [Example 184, 4-(2-(1-(3-chloro-2-fluorophenyl)-1H-1,2,3-triazole-4-carbonyl)-5-(4-fluoro-3-(pyrrolidine-1-carbonyl)phenyl)-1,2,3,4-tetrahydroisoquinoline-1-carboxamido)benzoic acid]
[2]
  Ki: < 5 nM

## O=C(O)c1ccc(NC(=O)C2c3cccc(-c4ccncc4)c3CCN2C(=O)c2cn(-c3cccc(Cl)c3F)nn2)cc1 (centres unmarked) [Example 186, 4-(2-(1-(3-chloro-2-fluorophenyl)-1H-1,2,3-triazole-4-carbonyl)-5-(pyridin-4-yl)-1,2,3,4-tetrahydroisoquinoline-1-carboxamido)benzoic acid, TFA salt]
[2]
  Ki: < 5 nM

## O=C(O)c1ccc(NC(=O)C2c3cccc(C4=CCNCC4)c3CCN2C(=O)c2cn(-c3cccc(Cl)c3F)nn2)cc1 (centres unmarked) [Example 187, 4-(2-(1-(3-chloro-2-fluorophenyl)-1H-1,2,3-triazole-4-carbonyl)-5-(1,2,3,6-tetrahydropyridin-4-yl)-1,2,3,4-tetrahydroisoquinoline-1-carboxamido)benzoic acid]
[2]
  Ki: < 5 nM

## NC(=O)Cc1cccc(-c2cccc3c2CCN(C(=O)c2cn(-c4cccc(Cl)c4F)nn2)C3C(=O)Nc2ccc(C(=O)O)cc2)c1 (centres unmarked) [Example 188, 4-(5-(3-(2-amino-2-oxoethyl)phenyl)-2-(1-(3-chloro-2-fluorophenyl)-1H-1,2,3-triazole-4-carbonyl)-1,2,3,4-tetrahydroisoquinoline-1-carboxamido)benzoic acid]
[2]
  Ki: < 5 nM

## O=C(O)c1ccc(NC(=O)C2c3cccc(N4CCC(N5CCCC5)CC4)c3CCN2C(=O)c2cn(-c3cccc(Cl)c3F)nn2)cc1 (centres unmarked) [Example 210, 4-(2-(1-(3-chloro-2-fluorophenyl)-1H-1,2,3-triazole-4-carbonyl)-5-(4-(pyrrolidin-1-yl)piperidin-1-yl)-1,2,3,4-tetrahydroisoquinoline-1-carboxamido)benzoic acid, 2 TFA salt]
[2]
  Ki: < 5 nM

## O=C(O)c1ccc(NC(=O)[C@@H]2c3cccc(N4CCN(C5COC5)CC4)c3CCN2C(=O)[C@H]2CC(c3cccc(Cl)c3F)=NO2)cc1 [Example 227, 4-((S)-2-((R)-3-(3-Chloro-2-fluorophenyl)-4,5-dihydroisoxazole-5-carbonyl)-5-(4-(oxetan-3-yl)piperazin-1-yl)-1,2,3,4-tetrahydroisoquinoline-1-carboxamido)benzoic acid, 2 TFA salt]
[2]
  Ki: < 5 nM

## O=C(O)c1ccc(NC(=O)[C@H]2c3cccc(N4CCN(C5COC5)CC4)c3CCN2C(=O)[C@H]2CC(c3cccc(Cl)c3F)=NO2)cc1 [Example 228, 4-((R)-2-((R)-3-(3-Chloro-2-fluorophenyl)-4,5-dihydroisoxazole-5-carbonyl)-5-(4-(oxetan-3-yl)piperazin-1-yl)-1,2,3,4-tetrahydroisoquinoline-1-carboxamido)benzoic acid, 2 TFA salt]
[2]
  Ki: < 5 nM

## COC1CCN(c2cccc3c2CCN(C(=O)C2CCN(c4cccc(Cl)c4)C2)C3C(=O)Nc2ccc(C(=O)O)cc2)CC1 (centres unmarked) [Example 258, 4-(2-(1-(3-chlorophenyl)pyrrolidine-3-carbonyl)-5-(4-methoxypiperidin-1-yl)-1,2,3,4-tetrahydroisoquinoline-1-carboxamido)benzoic acid, TFA salt]
[2]; TFA salt
  Ki: 127 nM

## COC1CCN(c2cccc3c2CCN(C(=O)C2CCN(c4cccc(Cl)c4)C2)C3C(=O)Nc2ccc(C(=O)O)cc2)CC1 (centres unmarked) [Example 261, 4-(2-(1-(3-chlorophenyl)pyrrolidine-3-carbonyl)-5-(4-methoxypiperidin-1-yl)-1,2,3,4-tetrahydroisoquinoline-1-carboxamido)benzoic acid, TFA salt]
[2]; TFA salt
  Ki: 948 nM

## O=C(O)c1ccc(NC(=O)[C@@H]2c3cccc(N4CCOCC4=O)c3CCN2C(=O)[C@H]2CC(c3cccc(Cl)c3F)=NO2)cc1 [Example 289, 4-((S)-2-((R)-3-(3-chloro-2-fluorophenyl)-4,5-dihydroisoxazole-5-carbonyl)-5-(3-oxomorpholino)-1,2,3,4-tetrahydroisoquinoline-1-carboxamido)benzoic acid,]
[2]
  Ki: < 5 nM
